Where two headings read alike, the source gives them in different places.
Experiments:
[1] = tested on: GM1 production in Jurkat cells; assay: cells; assay type: cell-based
[2] = biological target: T1, glucosylceramide synthase (GCS) (Homo sapiens, UniProt Q16739); assay: GCS enzyme inhibition assay (A549 cell lysate, NBD C6-ceramide, HPLC fluorescence); assay type: biochemical; conditions: inhibitory activity against GCS, 37° C., 90 minutes
T1 construct: The obtained supernatant was used; host or cells: A549 cells (lysate supernatant after sonication)
T1 sequence (Q16739 1-394): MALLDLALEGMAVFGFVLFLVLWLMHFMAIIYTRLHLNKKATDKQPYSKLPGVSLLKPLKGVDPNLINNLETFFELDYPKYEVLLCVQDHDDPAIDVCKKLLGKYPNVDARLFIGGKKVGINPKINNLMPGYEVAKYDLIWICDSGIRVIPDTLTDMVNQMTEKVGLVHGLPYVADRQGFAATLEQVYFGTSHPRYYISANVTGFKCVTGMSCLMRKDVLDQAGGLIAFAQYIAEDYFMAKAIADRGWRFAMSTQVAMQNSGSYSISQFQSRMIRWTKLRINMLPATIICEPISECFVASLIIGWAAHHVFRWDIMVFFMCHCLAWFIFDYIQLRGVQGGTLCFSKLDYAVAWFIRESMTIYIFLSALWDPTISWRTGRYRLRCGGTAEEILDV
In short: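 A549 cell lysate (50 mM HEPES pH 7.3) served as GCS source; reactions ran 90 min at 37° C, were stopped with chloroform/methanol and lipids extracted. Activity taken as GlcCer/(Cer+GlcCer) peak area, normalised between DMSO and ibiglustat controls.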

Compound: COc1cccc(-c2ccc3c(c2)OCC(C)(C)C3NC(=O)O[C@@H]2CN3CCC2CC3)c1Cl (stereo partly drawn) [Example 176, (S)-quinuclidin-3-yl (7-(2-chloro-3-methoxyphenyl)-3,3-dimethylchroman-4-yl)carbamate]
- IC50 ([1]; Homo sapiens, Jurkat, 72 h): 3.2 nM
- IC50 [2]: 0.59 nM

Compound: COc1cc(-c2ccc3c(c2)OCC(C)(C)C3NC(=O)O[C@@H]2CN3CCC2CC3)ccc1Cl (stereo partly drawn) [Example 177, (S)-quinuclidin-3-yl (7-(4-chloro-3-methoxyphenyl)-3,3-dimethylchroman-4-yl)carbamate]
- IC50 ([1]; Homo sapiens, Jurkat, 72 h): 9.73 nM
- IC50 [2]: 1.39 nM

Compound: CC1(C)COc2cc(-c3cccc4cn[nH]c34)ccc2C1NC(=O)O[C@@H]1CN2CCC1CC2 (stereo partly drawn) [Example 178, (S)-quinuclidin-3-yl (7-(1H-indazol-7-yl)-3,3-dimethylchroman-4-yl)carbamate]
- IC50 ([1]; Homo sapiens, Jurkat, 72 h): 4.36 nM
- IC50 [2]: 1.14 nM

Compound: CC1(C)COc2cc(-c3cc(Cl)cc(Cl)c3)ccc2C1NC(=O)O[C@@H]1CN2CCC1CC2 (stereo partly drawn) [Example 179, (S)-quinuclidin-3-yl (7-(3,5-dichlorophenyl)-3,3-dimethylchroman-4-yl)carbamate]
- IC50 ([1]; Homo sapiens, Jurkat, 72 h): 4.42 nM
- IC50 [2]: 1.31 nM

Compound: CC1(C)COc2cc(-c3cnn(Cc4ccccc4)c3)ccc2C1NC(=O)O[C@@H]1CN2CCC1CC2 (stereo partly drawn) [Example 180, (S)-quinuclidin-3-yl (7-(1-benzyl-1H-pyrazol-4-yl)-3,3-dimethylchroman-4-yl)carbamate]
- IC50 ([1]; Homo sapiens, Jurkat, 72 h): 3.42 nM
- IC50 [2]: 0.44 nM

Compound: CC1(C)COc2cc(-c3ccc4c(c3)CCO4)ccc2C1NC(=O)O[C@@H]1CN2CCC1CC2 (stereo partly drawn) [Example 181, (S)-quinuclidin-3-yl (7-(2,3-dihydrobenzofuran-5-yl)-3,3-dimethylchroman-4-yl)carbamate]
- IC50 ([1]; Homo sapiens, Jurkat, 72 h): 5.55 nM
- IC50 [2]: 0.5 nM

Compound: CC1(C)COc2cc(-c3ccc(OCC4CC4)nc3)ccc2C1NC(=O)O[C@@H]1CN2CCC1CC2 (stereo partly drawn) [Example 182, (S)-quinuclidin-3-yl (7-(6-(cyclopropylmethoxy)pyridin-3-yl)-3,3-dimethylchroman-4-yl)carbamate]
- IC50 ([1]; Homo sapiens, Jurkat, 72 h): 0.79 nM
- IC50 [2]: 0.25 nM

Compound: CC1(C)COc2cc(-c3cc4ccccc4o3)ccc2C1NC(=O)O[C@@H]1CN2CCC1CC2 (stereo partly drawn) [Example 183, (S)-quinuclidin-3-yl (7-(benzofuran-2-yl)-3,3-dimethylchroman-4-yl)carbamate]
- IC50 ([1]; Homo sapiens, Jurkat, 72 h): 6.43 nM
- IC50 [2]: 1.22 nM

Compound: CC1(C)COc2cc(-c3cccc(S(=O)(=O)N4CCCC4)c3)ccc2C1NC(=O)O[C@@H]1CN2CCC1CC2 (stereo partly drawn) [Example 184, (S)-quinuclidin-3-yl (3,3-dimethyl-7-(3-(pyrrolidin-1-ylsulfonyl)phenyl)chroman-4-yl)carbamate]
- IC50 ([1]; Homo sapiens, Jurkat, 72 h): 4.16 nM
- IC50 [2]: 0.91 nM

Compound: CC1(C)COc2cc(-c3ccccc3C(F)(F)F)ccc2C1NC(=O)O[C@@H]1CN2CCC1CC2 (stereo partly drawn) [Example 185, (S)-quinuclidin-3-yl (3,3-dimethyl-7-(2-(trifluoromethyl)phenyl)chroman-4-yl)carbamate]
- IC50 ([1]; Homo sapiens, Jurkat, 72 h): 0.98 nM
- IC50 [2]: 0.67 nM

Compound: CCOc1ccccc1-c1ccc2c(c1)OCC(C)(C)C2NC(=O)O[C@@H]1CN2CCC1CC2 (stereo partly drawn) [Example 186, (S)-quinuclidin-3-yl (7-(2-ethoxyphenyl)-3,3-dimethylchroman-4-yl)carbamate]
- IC50 ([1]; Homo sapiens, Jurkat, 72 h): 2.81 nM
- IC50 [2]: 0.38 nM

Compound: CC1(C)COc2cc(-c3ccsc3)ccc2C1NC(=O)O[C@@H]1CN2CCC1CC2 (stereo partly drawn) [Example 187, (S)-quinuclidin-3-yl (3,3-dimethyl-7-(thiophen-3-yl)chroman-4-yl)carbamate]
- IC50 ([1]; Homo sapiens, Jurkat, 72 h): 2.06 nM
- IC50 [2]: 0.32 nM

Compound: COc1ccc(-c2ccc3c(c2)OCC(C)(C)C3NC(=O)O[C@@H]2CN3CCC2CC3)cc1C(F)(F)F (stereo partly drawn) [Example 188, (S)-quinuclidin-3-yl (7-(4-methoxy-3-(trifluoromethyl)phenyl)-3,3-dimethylchroman-4-yl)carbamate]
- IC50 [1]: 4.59 nM
- IC50 [2]: 0.75 nM

Compound: CC1(C)COc2cc(-c3ccccc3C#N)ccc2C1NC(=O)O[C@@H]1CN2CCC1CC2 (stereo partly drawn) [Example 189, (S)-quinuclidin-3-yl (7-(2-cyanophenyl)-3,3-dimethylchroman-4-yl)carbamate]
- IC50 ([1]; Homo sapiens, Jurkat, 72 h): 0.04 nM
- IC50 [2]: 0.36 nM
